Experimental data: the supplement of paper PMC10307832

How the values were obtained:
Assay in all cases: relative viability (nuclei count vs DMSO), 5 days (fraction); higher = more cells survive
GW-2580 + Luminespib = compound: COC1=CC=C(C=C1)COC2=C(C=C(C=C2)CC3=CN=C(N=C3N)N)OC [GW-2580] + CCNC(=O)c1noc(-c2cc(C(C)C)c(O)cc2O)c1-c1ccc(CN2CCOCC2)cc1 [Luminespib] (partner 0.01 µM)
In short: (§1)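 Relative viability is defined as nuclei in treated wells over nuclei in vehicle wells. Duplicate plates were run and medians reported. Lung cancer cell lines in 1536-well plates were dosed by pin tool one day after seeding, with one drug or with a fixed anchor-drug dose plus five library-drug doses (not always all listed) in √10 steps, and nuclei were counted after 5 days.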

GW-2580 + Lapatinib = compound: COC1=CC=C(C=C1)COC2=C(C=C(C=C2)CC3=CN=C(N=C3N)N)OC [GW-2580] + CS(=O)(=O)CCNCc1ccc(-c2ccc3ncnc(Nc4ccc(OCc5cccc(F)c5)c(Cl)c4)c3c2)o1 [Lapatinib] (partner 2 µM)
In short: as §1

Fedratinib + OSI-027 = compound: Cc1cnc(Nc2ccc(OCCN3CCCC3)cc2)nc1Nc1cccc(S(=O)(=O)NC(C)(C)C)c1 [Fedratinib] + COc1cccc2cc(-c3nc([C@H]4CC[C@H](C(=O)O)CC4)n4ncnc(N)c34)[nH]c12 [OSI-027] (partner 0.5 µM)
In short: as §1

Fedratinib + Tozasertib = compound: Cc1cnc(Nc2ccc(OCCN3CCCC3)cc2)nc1Nc1cccc(S(=O)(=O)NC(C)(C)C)c1 [Fedratinib] + Cc1cc(Nc2cc(N3CCN(C)CC3)nc(Sc3ccc(NC(=O)C4CC4)cc3)n2)n[nH]1 [Tozasertib] (partner 0.1 µM)
In short: as §1

Fedratinib + Alpelisib = compound: Cc1cnc(Nc2ccc(OCCN3CCCC3)cc2)nc1Nc1cccc(S(=O)(=O)NC(C)(C)C)c1 [Fedratinib] + Cc1nc(NC(=O)N2CCC[C@H]2C(N)=O)sc1-c1ccnc(C(C)(C)C(F)(F)F)c1 [Alpelisib] (partner 2 µM)
In short: as §1

Fedratinib + Olaparib = compound: Cc1cnc(Nc2ccc(OCCN3CCCC3)cc2)nc1Nc1cccc(S(=O)(=O)NC(C)(C)C)c1 [Fedratinib] + O=C(c1cc(Cc2n[nH]c(=O)c3ccccc23)ccc1F)N1CCN(C(=O)C2CC2)CC1 [Olaparib] (partner 8 µM)
In short: as §1

Cell Line | relative viability (GW-2580 + Luminespib; first compound 0.08 µM) | relative viability (GW-2580 + Luminespib; first compound 0.8 µM) | relative viability (GW-2580 + Luminespib; first compound 2.53 µM) | relative viability (GW-2580 + Luminespib; first compound 8 µM) | relative viability (GW-2580 + Lapatinib; first compound 0.08 µM) | relative viability (GW-2580 + Lapatinib; first compound 0.8 µM) | relative viability (GW-2580 + Lapatinib; first compound 2.53 µM) | relative viability (GW-2580 + Lapatinib; first compound 8 µM) | relative viability (Fedratinib + OSI-027; first compound 0.1 µM) | relative viability (Fedratinib + OSI-027; first compound 0.3162 µM) | relative viability (Fedratinib + OSI-027; first compound 1 µM) | relative viability (Fedratinib + Tozasertib; first compound 0.1 µM) | relative viability (Fedratinib + Tozasertib; first compound 0.3162 µM) | relative viability (Fedratinib + Tozasertib; first compound 1 µM) | relative viability (Fedratinib + Alpelisib; first compound 0.1 µM) | relative viability (Fedratinib + Alpelisib; first compound 0.3162 µM) | relative viability (Fedratinib + Alpelisib; first compound 1 µM) | relative viability (Fedratinib + Olaparib; first compound 0.1 µM) | relative viability (Fedratinib + Olaparib; first compound 0.3162 µM) | relative viability (Fedratinib + Olaparib; first compound 1 µM)
NCI-H1355 | 0.816 | 0.841 | 0.694 | 0.669 | 1.08 | 1.2 | 0.817 | 1.01 | 0.323 | 0.437 | 0.258 | 0.325 | 0.593 | 0.421 | 0.731 | 0.853 | 0.832 | 0.771 | 0.817 | 0.699
NCI-H1395 | 0.723 | 0.665 | 0.648 | 0.59 | 0.994 | 0.95 | 0.88 | 0.912 | 0.553 | 0.694 | 0.545 | 0.623 | 0.874 | 0.653 | 0.885 | 1 | 1.39 | 0.416 | 0.468 | 0.444
NCI-H1437 | 1.17 | 1.16 | 1.05 | 0.786 | 0.82 | 0.965 | 0.723 | 0.781 | 0.911 | 0.924 | 0.825 | 0.398 | 0.417 | 0.368 | 0.826 | 0.975 | 0.859 | 0.627 | 0.645 | 0.598
NCI-H1651 | 0.877 | 1.01 | 0.8 | 0.823 | 1.08 | 0.909 | 0.778 | 0.956 | 0.707 | 0.653 | 0.62 | 0.537 | 0.616 | 0.623 | 1.16 | 1.01 | 0.9 | 0.173 | 0.169 | 0.169
NCI-H1666 | 0.984 | 1.09 | 0.918 | 0.928 | 0.601 | 0.757 | 0.847 | 0.431 | 0.837 | 0.793 | 0.898 | 0.558 | 0.599 | 0.514 | 0.872 | 1.05 | 1.02 | 0.792 | 0.751 | 0.747
NCI-H1734 | 0.169 | 0.171 | 0.193 | 0.19 | 1.17 | 1 | 1.01 | 1.01 | 0.607 | 0.588 | 0.536 | 0.262 | 0.278 | 0.243 | 0.627 | 0.654 | 0.62 | 0.683 | 0.618 | 0.505
NCI-H1755 | 0.697 | 0.401 | 0.332 | 0.45 | 1.12 | 1.28 | 0.94 | 0.96 | 0.601 | 0.757 | 0.651 | 0.53 | 0.524 | 0.523 | 0.969 | 0.886 | 0.82 | 0.898 | 0.861 | 0.855
NCI-H1793 | 0.187 | 0.238 | 0.162 | 0.151 | 0.803 | 0.74 | 0.571 | 0.459 | 0.237 | 0.271 | 0.234 | 0.263 | 0.353 | 0.288 | 0.746 | 0.683 | 0.627 | 0.998 | 0.941 | 0.775
NCI-H1915 | 0.852 | 1.12 | 0.429 | 0.917 | 1.13 | 1.05 | 1.04 | 1.03 | 0.612 | 0.67 | 0.319 | 0.329 | 0.417 | 0.328 | 1.03 | 1.04 | 0.943 | 0.262 | 0.227 | 0.222
NCI-H1944 | 0.692 | 0.767 | 0.7 | 0.628 | 0.843 | 0.98 | 0.82 | 0.897 | 0.343 | 0.413 | 0.344 | 0.25 | 0.225 | 0.209 | 0.804 | 0.945 | 0.716 | 0.407 | 0.383 | 0.408
NCI-H1975 | 0.186 | 0.5 | 0.162 | 0.193 | 0.925 | 1.09 | 0.885 | 0.834 | 0.729 | 0.833 | 0.602 | 0.44 | 0.734 | 0.389 | 0.613 | 0.692 | 0.467 | 0.814 | 0.841 | 0.613
NCI-H1993 | 0.853 | 0.907 | 0.71 | 0.852 | 0.775 | 0.904 | – | 0.907 | 0.519 | 0.522 | 0.524 | 0.58 | 0.575 | 0.596 | 0.612 | 0.755 | 0.65 | 0.949 | 1.01 | 0.839
NCI-H2009 | 1.15 | 1.11 | 0.999 | 0.876 | 0.966 | 0.894 | 0.91 | 0.857 | 0.529 | 0.632 | 0.455 | 0.547 | 0.792 | 0.652 | 1.21 | 1.2 | 1.1 | 0.692 | 0.694 | 0.649
NCI-H2023 | 0.932 | 1.07 | 1.26 | 0.717 | 0.899 | 0.964 | 0.633 | 0.797 | 0.393 | 0.394 | 0.328 | 0.226 | 0.289 | 0.281 | 0.578 | 0.629 | 0.56 | 0.533 | 0.488 | 0.44
NCI-H2085 | 0.529 | 0.364 | 0.436 | 0.411 | 0.849 | 0.988 | 0.626 | 0.713 | 0.586 | 0.855 | 0.711 | 0.478 | 0.827 | 0.764 | 0.977 | 0.963 | 0.922 | 0.73 | 0.824 | 0.765
